Experimental data from patent US20070015813A1, “Treatment of protein folding disorders” (QUEEN'S UNIVERSITY AT KINGSTON, priority 2005, published 2007).

Assays:
tau441 = target: T1, tau441 (Homo sapiens, UniProt P10636); experiment: Kinetic Thioflavin S (ThS) assay of tau441 aggregation; format: biochemical; details: for tau aggregation in the absence of heparin inducer: heparin omitted
T1 construct: (expression construct); host or cells: E. coli BL21 D3
Method: The tau441 expression construct [L Buee et al. (2000). Brain Research Reviews 33:95-130] was purchased (Bioclon Inc., San Diego, Calif.) already transformed in BL21 D3 bacterial cells (Novagen/EMD Biosciences) for protein expression. Cells were grown and induced with IPTG according to Novagen's protocol. To lyse cells, Cellytic B reagent (Sigma) was used with lysozyme protease inhibitors (Sigma) and benzonase (Novagen/EMD Biosciences), according to manufacturer's methods. Lysate was cleared by centrifugation for 20 min at 10,000 RPM (SS34 rotor, Sorvall RC2b centrifuge) at 4° C. Protein was purified from the soluble fraction. Once purified, tau441 was stored at −78° C. as frozen aliquots (8.3 mg/mL, 60 μL) in Tris-HCl (50 mM, pH 7.4) until used.
Frozen aliquots of tau441 (8.3 mg/mL, 60 μL) in Tris-HCl (50 mM, pH 7.4) were allowed to thaw at room temperature (RT) before being diluted with Tris-HCl (2.64 mL, 50 mM, pH 7.4) containing dithiothreitol (DTT, 1 mM) to prevent disulfide bonds and NaN3 (50 μM) to prevent bacterial growth. After allowing to stand at RT for 1 h, Thioflavin S (ThS) was added (2.5 μL, 10.8 mM), followed by the aggregation inducer heparin (20 μL, 1.08 g/mL).
(§1) Aliquots (200 μL) of Aβ^1-40, Aβ^1-42, tau441 or α-synuclein with ThT or ThS were added to wells of a black polystyrene 96-well plate, followed by 2 μL of a compound in DMSO (various concentrations), or DMSO alone (controls). For α-synuclein, sodium dodecyl sulfate solution (2.0 μL, 30 mM) was also added to each well to induce aggregation. Incubations were performed in triplicate and were taken to contain 20 μM Aβ^1-40 or Aβ^1-42, 6 μM tau441 or 4 μM α-synuclein. Plates were covered with clear polystyrene lids and incubated at 37° C. in a GENios microplate reader obtained from Tecan Group Limited, Mannedorf, Zurich. For Aβ^1-40, tau441 and α-synuclein, fluorescence readings (λex=450 nm, λem=480 nm) were taken every 15 min., after first shaking at high intensity for 15 sec. and allowing to settle for 10 sec. before each reading. For Aβ^1-42, readings were taken every 5 min.
Aggregation conditions: tau441 at a concentration of either 10 μM (A) or 4 μM (B,C,D,E) was incubated in covered black 96-well polystyrene microplates alone or with 100 (A) or 50 μM compound (B,C,D,E), 5 μM ThS, pH 7.4, Tris-HCl (50 mM) containing NaN3 (50 μM), and either 1% MeOH (A) or 1% DMSO (B,C,D,E). Plates were heated at 37° C. in a Tecan GENios microplate reader. All incubations performed in triplicate, except for compound 0c in (A), which had n=1. Fluorescence readings: fluorescence measured every 15 min. (λex=450 nm, λem=480 nm) after shaking for 15 sec. and pausing 10 sec. before taking measurement. Values are the mean of three replicates. Error bars, sometimes not visible due to small size, represent standard deviation of the mean.
Aggregation conditions: tau441 at a concentration of 4 μM was incubated in covered black 96-well polystyrene microplates alone or with 50 μM (A,B,C) or 1 mM compound (D), 5 μM ThS, pH 7.4, Tris-HCl (50 mM) containing NaN3 (50 μM), and 1% DMSO. Plates were heated at 37° C. in a Tecan GENios microplate reader. All incubations performed in triplicate. Fluorescence readings: fluorescence measured every 15 min. (λex=450 nm, λem=480 nm) after shaking for 15 sec. and pausing 10 sec. before taking measurement. Values are the mean of three replicates. Error bars, sometimes not visible due to small size, represent standard deviation of the mean.

Aβ1-40 = target: T2, Aβ1-40 (Homo sapiens, UniProt P05067); experiment: Kinetic Thioflavin T (ThT) aggregation assay of Aβ1-40; format: biochemical; details: 20 μM Aβ1-40, 4 μM ThT, pH 7.4, 37° C., kinetic ThT assay
T2 construct: Aβ^1-40 (AnaSpec, San Jose, Calif., lots 14212, 34862 and 34889); purchased AnaSpec, San Jose, Calif
Method: Aβ^1-40 (1.0 mg) was pre-treated in a 1.5 mL microfuge tube with 1,1,1,3,3,3-hexafluoroisopropanol (HFIP, 1 mL) and sonicated for 20 min. to disassemble any pre-formed Aβ aggregates. The HFIP was removed with a stream of argon and the Aβ dissolved in Tris base (5.8 mL, 20 mM, pH 10.5). The pH was adjusted to 7.4 with concentrated HCl and the solution filtered using a syringe filter (0.2 μm). This solution was used for circular dichroism studies or diluted with an equal volume of 8 μM Thioflavin T (ThT) in Tris-HCl (20 mM, pH 7.4, 300 mM NaCl) for the ThT aggregation assay.
as §1
The absorbance of each compound was measured under the conditions used during testing, though on ten times the scale (2 mL), to ensure no significant quenching interfered with the assay. This step was also used to identify whether compounds were completely soluble under testing conditions.
FIG. 1 depicts the inhibition of Aβ^1-40 aggregation, as measured by Thioflavin T (ThT) fluorescence, by directly-linked 3,3′-bis-indolyl compounds 0c-i (A), other bis-indoles (B), aza-indole-containing compounds (C), indole-phenols (D), indole-5-carboxylic acid-containing bi-aromatics (E), and naphthol-containing bi-aromatics (F). Aggregation conditions: 20 μM Aβ^1-40 incubated in covered black 96-well polystyrene microplates with 4 μM ThT, pH 7.4, Tris-HCl (20 mM), 150 mM NaCl, 1% DMSO. Compound concentrations are 200 μM (A,B, except where otherwise noted), 100 μM (E), 20 μM (F), or as indicated (C,D). Plates heated at 37° C. in Tecan Genios microplate reader. All incubations performed in triplicate. Prior to experiment, Aβ^1-40 pretreated with 1,1,1,3,3,3-hexafluoroisopropanol (HFIP). Fluorescence readings: fluorescence measured every 15 min. (λex=450 nm, λem=480 nm) after shaking for 15 sec. and pausing 10 sec. before taking measurement. Values are the mean of three replicates. Error bars, omitted for clarity in (B), represent standard deviation of the mean.

T1 sequence (P10636 1-441 isoform P10636-8): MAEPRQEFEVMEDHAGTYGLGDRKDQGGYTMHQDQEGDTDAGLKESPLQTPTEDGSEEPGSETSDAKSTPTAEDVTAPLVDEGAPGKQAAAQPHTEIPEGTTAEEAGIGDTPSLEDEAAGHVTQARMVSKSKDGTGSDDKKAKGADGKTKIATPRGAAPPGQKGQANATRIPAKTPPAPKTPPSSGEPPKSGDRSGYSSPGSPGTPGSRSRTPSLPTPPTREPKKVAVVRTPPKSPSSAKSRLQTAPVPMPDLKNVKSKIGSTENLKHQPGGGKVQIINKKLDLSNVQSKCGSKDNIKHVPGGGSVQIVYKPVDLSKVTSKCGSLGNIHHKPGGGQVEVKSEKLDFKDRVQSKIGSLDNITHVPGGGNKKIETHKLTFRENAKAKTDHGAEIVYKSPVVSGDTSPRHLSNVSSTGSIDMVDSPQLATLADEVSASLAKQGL
T2 sequence (P05067 672-711 limits assumed): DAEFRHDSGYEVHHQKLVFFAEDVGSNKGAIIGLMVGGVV

tau aggregation in the absence of heparin inducer (tau441)	effect on tau fibrillization (ThS fluorescence) (tau441; tau441 4 or 10 μM, 50 to 100 μM compound, 5 μM ThS, heparin inducer, pH 7.4, 37° C.)	inhibition of Aβ1-40 aggregation, as measured by Thioflavin T (ThT) fluorescence (Aβ1-40)	Compound
inhibited tau aggregation	inhibition of tau fibrillization	inhibition	O=c1c(O)c(-c2ccc(O)cc2O)oc2cc(O)cc(O)c12 [morin]
inhibited tau aggregation		dose-response effect	O=C(O)c1ccc2[nH]cc(-c3c[nH]c4ccc(Br)cc34)c2c1 [0c, 3-(5-bromo-indol-3-yl)-indole-5-carboxylic Acid]
